Source: patent publication US9062041B2 (Bayer Intellectual Property GmbH, priority 2011, dated 2015)
pIC50: −log10 of the molar value.

Legend:
Assay type in all cases: cell-based
[1] = molecular target: EP2 subtype of the human PGE2 receptor (Homo sapiens, UniProt P43116); assay: cAMP antagonism test on the human EP2 receptor (HTRF cAMP detection); details: hEP2 receptor, read-out: Antagonism hEP2 IC50
Procedure, shortened: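 Read-out is a competitive HTRF for cAMP: lysate cAMP displaces cAMP-d2 from Eu cryptate-labelled antibody, and antagonism raises the 665/620 nm ratio. Compound (0.8 nM–16.5 μM) added to EP2 cells 20 min at RT before 60 min PGE2 challenge (3× stock 1.5 nM) with IBMX, followed by 20 min lysis.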

[2] = molecular target: EP4 subtype of the human PGE2 receptor (Homo sapiens, UniProt P35408); assay: cAMP antagonism test on the human EP4 receptor (HTRF cAMP detection); details: selectivity towards hEP4, IC50 measured by cAMP antagonism test
Chain of EP4 subtype of the human PGE2 receptor (P35408 whole entry): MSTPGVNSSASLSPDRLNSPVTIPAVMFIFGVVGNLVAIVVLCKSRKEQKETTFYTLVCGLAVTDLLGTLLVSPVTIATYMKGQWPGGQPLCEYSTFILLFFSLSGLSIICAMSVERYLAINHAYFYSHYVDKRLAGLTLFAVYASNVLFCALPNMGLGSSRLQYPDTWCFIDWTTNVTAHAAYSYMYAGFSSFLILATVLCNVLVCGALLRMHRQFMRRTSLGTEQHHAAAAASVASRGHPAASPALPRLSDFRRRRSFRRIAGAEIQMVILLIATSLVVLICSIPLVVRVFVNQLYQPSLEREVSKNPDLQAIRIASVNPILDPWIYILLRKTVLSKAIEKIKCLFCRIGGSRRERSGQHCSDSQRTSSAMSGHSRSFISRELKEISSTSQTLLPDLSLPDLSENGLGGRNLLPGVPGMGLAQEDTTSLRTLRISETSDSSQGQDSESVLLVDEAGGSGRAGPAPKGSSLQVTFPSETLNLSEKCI
Procedure, shortened: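 Competitive HTRF cAMP read-out (cAMP-d2 vs Eu-cryptate anti-cAMP antibody, 665/620 nm ratio) on lysed human EP4 cells. Compound (0.8 nM–16.5 μM) applied 20 min at RT before 60 min PGE2 challenge (3× solution 0.3 nM, IBMX present); 20 min lysis precedes reading.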

human PGD receptor = molecular target: T1, human PGD receptor (Homo sapiens, UniProt Q13258); assay: cAMP antagonism test on the human prostaglandin D receptor (HTRF cAMP detection); details: selectivity towards hDP, IC50 measured by cAMP antagonism test
T1 sequence (Q13258 1-359): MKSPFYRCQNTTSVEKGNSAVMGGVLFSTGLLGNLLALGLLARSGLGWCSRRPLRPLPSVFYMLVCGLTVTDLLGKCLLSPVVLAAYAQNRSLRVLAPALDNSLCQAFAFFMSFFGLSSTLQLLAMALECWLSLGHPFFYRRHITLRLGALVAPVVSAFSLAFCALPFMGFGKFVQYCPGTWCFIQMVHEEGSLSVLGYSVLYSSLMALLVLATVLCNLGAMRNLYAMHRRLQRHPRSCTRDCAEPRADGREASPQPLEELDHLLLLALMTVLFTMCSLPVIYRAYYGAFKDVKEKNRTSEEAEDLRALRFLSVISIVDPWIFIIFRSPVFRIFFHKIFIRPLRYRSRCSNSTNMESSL
Procedure, shortened: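 HTRF competition read-out (665/620 nm ratio ×10000), where higher FRET means less cAMP, i.e. antagonism. Compounds (0.8 nM–16.5 μM) were preincubated 20 min at RT with cells and cAMP-d2, PGD2 (3× solution, 6 nM) in IBMX-containing PBS added for 30 min at RT, then cells lysed 20 min.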

Chain of EP2 subtype of the human PGE2 receptor (P43116 whole entry): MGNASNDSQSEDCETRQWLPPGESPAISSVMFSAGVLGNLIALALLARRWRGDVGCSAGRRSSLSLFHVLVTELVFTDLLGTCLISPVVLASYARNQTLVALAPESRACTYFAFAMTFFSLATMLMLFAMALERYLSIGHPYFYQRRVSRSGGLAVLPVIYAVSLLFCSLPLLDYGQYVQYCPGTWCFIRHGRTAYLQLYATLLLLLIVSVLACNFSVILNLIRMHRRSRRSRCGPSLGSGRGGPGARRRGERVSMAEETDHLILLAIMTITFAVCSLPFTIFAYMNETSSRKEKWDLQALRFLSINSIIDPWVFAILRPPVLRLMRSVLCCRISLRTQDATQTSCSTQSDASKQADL

Structure (SMILES) | pIC50 [1] | Selectivity hEP2/hEP4 [2] | Selectivity hEP2/hDP (human PGD receptor)
CCOc1c(C(=O)NCCOC)ccc2nn(CC3CN(C(=O)c4ccc(S(F)(F)(F)(F)F)cc4)C3)cc12 [Example 277, 4-ethoxy-N-(2-methoxyethyl)-2-({1-[4-(pentafluoro-λ^6-sulphanyl)benzoyl]-azetidin-3-yl}methyl)-2H-indazol-5-carboxamide] | 7.32 | xxx (xxx > 100) | xxx (xxx > 100)
COCCNC(=O)c1cc2cn(CC3CCN(C(=O)c4ccc(C(F)(F)F)cc4F)CC3)nc2cc1C [Example 206, 2-({1-[2-fluoro-4-(trifluoromethyl)benzoyl]piperidin-4-yl}methyl)-N-(2-methoxy-ethyl)-6-methyl-2H-indazol-5-carboxamide] | 7.38 | xxx (xxx > 100) | xxx (xxx > 100)
COCCNC(=O)c1cc2cn(CC3CCN(C(=O)c4ccc(S(F)(F)(F)(F)F)cc4)CC3)nc2cc1C [Example 210, N-(2-methoxyethyl)-6-methyl-2-({1-[4-(pentafluoro-λ^6-sulphanyl)benzoyl]-piperidin-4-yl}methyl)-2H-indazol-5-carboxamide] | 7.71 | xxx (xxx > 100) | xxx (xxx > 100)
COc1c(C(=O)NCCN2CCOCC2)ccc2nn(CC3CCN(C(=O)c4ccc(Cl)cc4)CC3)cc12 [Example 261, 2-{[1-(4-chlorobenzoyl)piperidin-4-yl]methyl}-4-methoxy-N-(2-morpholinoethyl)-2H-indazol-5-carboxamide] | 7.09 | xxx (xxx > 100) | xxx (xxx > 100)
Cc1c(C(=O)NCC2COCCO2)ccc2nn(CC3CN(C(=O)c4ccc(Cl)cc4)C3)cc12 (single isomer, unassigned) [Example 142, (R or S)-2-{[1-(4-chlorobenzoyl)azetidin-3-yl]methyl}-N-(1,4-dioxan-2-ylmethyl)-4-methyl-2H-indazol-5-carboxamide] | 6.15 | xx (xx: 10-100) | xx (xx: 10-100)
COCCNC(=O)c1ccc2nn(CC3CCN(C(=O)c4ccc(Oc5ccc(C(C)(C)C)cc5)cc4)CC3)cc2c1C [Example 16, 2-({1-[4-(4-tert-butylphenoxy)-benzoyl]piperidin-4-yl}methyl)-N-(2-methoxyethyl)-4-methyl-2H-indazol-5-carboxamide] | 8.23 | xxx (xxx > 100) | xxx (xxx > 100)
COc1ccc2c(c1)cc(C(=O)N1CC(Cn3cc4c(C)c(C(=O)NCC(F)(F)F)ccc4n3)C1)n2C [Example 168, 2-({1-[(5-methoxy-1-methyl-1H-indol-2-yl)carbonyl]azetidin-3-yl}methyl)-4-methyl-N-(2,2,2-trifluoroethyl)-2H-indazol-5-carboxamide] | 7.53 | xxx (xxx > 100) | xxx (xxx > 100)
COCCNC(=O)c1ccc2nn(CC3CCN(C(=O)c4ccc(S(C)(=O)=O)cc4F)CC3)cc2c1C [Example 6, 2-{[1-(2-fluoro-4-mesylbenzoyl)piperidin-4-yl]methyl}-N-(2-methoxyethyl)-4-methyl-2H-indazol-5-carboxamide] | 6.50 | xx (xx: 10-100) | xx (xx: 10-100)
COCCNC(=O)c1ccc2nn(C[C@H]3CCN(C(=O)c4ccc(-c5ccc(F)cc5)cc4)C3)cc2c1C [Example 223, 2-({(S)-1-[(4′-fluorobiphenyl-4-yl)carbonyl]pyrrolidin-3-yl}methyl)-N-(2-methoxyethyl)-4-methyl-2H-indazol-5-carboxamide] | 7.70 | xxx (xxx > 100) | xxx (xxx > 100)
Cc1c(C(=O)NCC(F)(F)F)ccc2nn(CC3CCN(C(=O)c4ccc(Oc5cccc(F)c5)cc4)CC3)cc12 [Example 307, 2-({1-[4-(3-fluorophenoxy)benzoyl]piperidin-4-yl}methyl)-4-methyl-N-(2,2,2-trifluoroethyl)-2H-indazol-5-carboxamide] | 7.51 | xxx (xxx > 100) | xxx (xxx > 100)
COCCNC(=O)c1ccc2nn(CC3CCN(C(=O)c4ccc(-n5cccn5)cc4)CC3)cc2c1C [Example 38, N-(2-methoxyethyl)-4-methyl-2-({1-[4-(1H-pyrazol-1-yl)-benzoyl]piperidin-4-yl}methyl)-2H-indazol-5-carboxamide] | 7.55 | xxx (xxx > 100) | xxx (xxx > 100)
Cc1ncc(-c2ccc(C(=O)N3CCC(Cn4cc5c(C)c(C(=O)NCC(F)(F)F)ccc5n4)CC3)cc2)cn1 [Example 327, 4-methyl-2-({1-[4-(2-methylpyrimidin-5-yl)benzoyl]piperidin-4-yl}methyl)-N-(2,2,2-trifluoroethyl)-2H-indazol-5-carboxamide] | 5.92 | xx (xx: 10-100) | xx (xx: 10-100)
Cc1c(C(=O)NCC(F)(F)F)ccc2nn(CC3CCN(C(=O)c4ccc(Oc5cccc(C(F)(F)F)n5)cc4)CC3)cc12 [Example 304, 4-methyl-N-(2,2,2-trifluoroethyl)-2-{[1-(4-{[6-(trifluoromethyl)pyridin-2-yl]-oxy}benzoyl)piperidin-4-yl]methyl}-2H-indazol-5-carboxamide] | 7.00 | xxx (xxx > 100) | xxx (xxx > 100)
COCCNC(=O)c1ccc2nn(CC3CCN(C(=O)c4ccc(Cl)c(C(F)(F)F)c4)CC3)cc2c1OC [Example 270, 2-({1-[4-chloro-3-(trifluoromethyl)benzoyl]piperidin-4-yl}methyl)-4-methoxy-N-(2-methoxyethyl)-2H-indazol-5-carboxamide] | 7.27 | xxx (xxx > 100) | xxx (xxx > 100)
Cc1cc2nn(CC3CN(C(=O)c4ccc(S(F)(F)(F)(F)F)cc4)C3)cc2cc1C(=O)NCCSC(F)(F)F [Example 187, 6-methyl-2-({1-[4-(pentafluoro-λ^6-sulphanyl)benzoyl]azetidin-3-yl}methyl)-N-{2-[(trifluoromethyl)sulphanyl]ethyl}-2H-indazol-5-carboxamide] | 7.63 | xxx (xxx > 100) | xxx (xxx > 100)
Cc1c(C(=O)NCC(F)(F)F)ccc2nn(CC3CCN(C(=O)c4ccc(-c5ccc(Cl)cn5)cc4)CC3)cc12 [Example 317, 2-({1-[4-(5-chloropyridin-2-yl)benzoyl]piperidin-4-yl}methyl)-4-methyl-N-(2,2,2-trifluoroethyl)-2H-indazol-5-carboxamide] | 6.74 | xx (xx: 10-100) | xx (xx: 10-100)
COCCNC(=O)c1ccc2nn(CC3CCN(C(=O)c4ccc(-c5ccccc5)c(C)c4)CC3)cc2c1C [Example 394, N-(2-methoxyethyl)-4-methyl-2-({1-[(2-methylbiphenyl-4-yl)carbonyl]piperidin-4-yl}methyl)-2H-indazol-5-carboxamide] | 8.24 | xxx (xxx > 100) | xxx (xxx > 100)
Cc1c(C(=O)NCCSC(F)(F)F)ccc2nn(C[C@@H]3CCN(C(=O)c4ccc(Cl)cc4)C3)cc12 [Example 220, 2-{[(R)-1-(4-chlorobenzoyl)pyrrolidin-3-yl]methyl}-4-methyl-N-{2-[(trifluoromethyl)sulphanyl]ethyl}-2H-indazol-5-carboxamide] | 6.83 | xxx (xxx > 100) | xxx (xxx > 100)
Cc1c(C(=O)NCC(C)C)ccc2nn(CC3CCN(C(=O)c4ccc(Oc5ccc(C(F)(F)F)cc5)cc4)CC3)cc12 [Example 404, N-isobutyl-4-methyl-2-[(1-{4-[4-(trifluoromethyl)phenoxy]benzoyl}piperidin-4-yl)methyl]-2H-indazol-5-carboxamide] | 7.69 | xxx (xxx > 100) | xxx (xxx > 100)
COCCNC(=O)c1cc2cn(CC3CN(C(=O)c4ccc(-c5ccc(F)cc5)cc4)C3)nc2cc1C [Example 204, 2-({1-[(4′-fluorobiphenyl-4-yl)carbonyl]azetidin-3-yl}methyl)-N-(2-methoxy-ethyl)-6-methyl-2H-indazol-5-carboxamide] | 8.00 | xxx (xxx > 100) | xxx (xxx > 100)
